The values that follow come from US10899723B2, “Heterocyclic containing cyclopropyl FXR modulators” (Hepagene Therapeutics (HK) Limited, priority 2016, dated 2021).

Test [1] has as its target T1, FXR (Homo sapiens, UniProt Q96RI1).
T1 construct: expressed in transfected cells; host or cells: HEK293T
T1 sequence (Q96RI1 1-486): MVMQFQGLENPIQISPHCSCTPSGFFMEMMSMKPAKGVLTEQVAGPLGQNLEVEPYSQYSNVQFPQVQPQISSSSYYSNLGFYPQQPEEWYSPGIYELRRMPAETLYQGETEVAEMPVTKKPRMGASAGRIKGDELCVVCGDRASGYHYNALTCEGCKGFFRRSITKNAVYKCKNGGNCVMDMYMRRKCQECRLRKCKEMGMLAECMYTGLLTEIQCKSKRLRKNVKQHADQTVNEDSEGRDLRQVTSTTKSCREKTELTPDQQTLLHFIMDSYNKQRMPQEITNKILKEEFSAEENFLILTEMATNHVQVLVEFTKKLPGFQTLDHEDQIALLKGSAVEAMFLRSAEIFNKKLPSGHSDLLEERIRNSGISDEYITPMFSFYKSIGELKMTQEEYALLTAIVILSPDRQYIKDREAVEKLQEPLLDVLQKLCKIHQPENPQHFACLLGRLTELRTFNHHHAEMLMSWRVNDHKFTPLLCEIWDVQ
The test is described as follows: FXR Transactivation Assay (pBIND-FXR / pGL4.35 luciferase reporter in HEK293T). Format: cell-based. To be noted: HEK293T cells. Here is the method:
FXR Transactivation Assay
pGL4.35 [luc2P/9XGAL4 UAS/Hygro]
DMEM medium, high glucose
Fetal Bovine Serum (FBS, heat-inactivated)
Penicillin-Streptomycin (10000 U/ml, 100 ml)
DMEM, High Glucose, HEPES, no Phenol Red
Opti-MEM® I Reduced Serum Medium
Steady-Glo™ Luciferase Assay System
TransIT-293 Transfection Reagent
GW4064 as a positive control
(§1) • 1. Hek293T cells were plated at 1.1*10^6/ml into a 100 mm dish. • 2. Cells were transfected with 8.4 μg of pBind-FXR, 1.26 μg of the reporter vector pGL4.35 (Promega). Cells were incubated at 37° C. under 5% CO2 atmosphere. • 3. All of compounds were 3-fold serial diluted from 10 mM stock for 10 doses in DMSO. • 4. Transfer compound dilutions into 384 well assay plates using liquid workstation. • 5. Seed 25 ul HEK293T cells into 384 well assay plate (prepared step 4) at 0.6*10^5/ml. Cells were incubated at 37° C. under 5% CO2 atmosphere overnight. • 6. Add 25 ul steady-Glo™ Luciferase Assay Reagent into each well of 384-well assay plate. • 7. Record the luminescence value on Envision 2104 plate reader. • 8. Calculate EC50 by fitting % Activity values and log of compound concentrations to nonlinear regression (dose response−variable slope) with Graphpad 5.0. FXR Coactivator Assay Reagents: LanthaScreen™ TR-FRET Farnesoid X Receptor Coactivator Assay GW4064 as a positive control Process: • 1. All of compounds were 3-fold serial diluted from 10 mM stock for 10 doses in DMSO. • 2. Dilute each 100× agonist serial dilution to 2× using Complete Coregulator buffer G. • 3. Transfer 10 μl of each of the 2× agonist serial dilutions to 384 well assay plates. • 4. […] Incubate at room temperature protected from light. • 7. Read the plate at wavelengths of 520 nm and 495 nm on Envision 2104 plate reader. • 8. Calculate the TR-FRET ratio by dividing the emission signal at 520 nm by the emission signal at 495 nm. • 9. Calculate EC50 by fitting % Activity values and log of compound concentrations to nonlinear regression (dose response−variable slope) with Graphpad 5.0.
Background: Reporter assays use an easily measured gene product as a stand-in for the process of interest.

The target in test [2] is T2, FXR-LBD (Homo sapiens, UniProt Q96RI1).
T2 construct: Add 5 μl of 4×FXR-LBD to 384 well assay plates; purchased
T2 sequence (Q96RI1 262-486 limits assumed): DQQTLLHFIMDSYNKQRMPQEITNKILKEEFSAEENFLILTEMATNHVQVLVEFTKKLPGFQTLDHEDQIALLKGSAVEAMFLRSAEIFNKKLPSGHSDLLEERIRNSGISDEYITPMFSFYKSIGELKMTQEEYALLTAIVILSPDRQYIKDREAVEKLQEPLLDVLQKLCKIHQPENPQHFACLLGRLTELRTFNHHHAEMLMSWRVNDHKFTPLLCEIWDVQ
The test is described as follows: FXR Coactivator Assay (LanthaScreen TR-FRET). The test is classed as biochemical. The method, then:
as §1
Background: TR-FRET usually uses a lanthanide donor and a delayed reading to cut background.

Regarding `CC(C)c1onc(-c2c(Cl)cccc2Cl)c1COc1ccc(C2CC2(C)c2cncc(C(=O)O)c2)c(Cl)c1` (single isomer, unassigned) [IV-05-1, 5-[2-(2-Chloro-4-[[3-(2,6-dichlorophenyl)-5-(propan-2-yl)-1,2-oxazol-4-yl]methoxy]phenyl)-1-methylcyclopropyl] pyridine-3-carboxylic Acid], the EC50 in test [1] and in test [2] was 10 to 100 nM each time.

For the compound `CC(C)c1onc(-c2c(Cl)cccc2Cl)c1COc1ccc(C2CC2(C)c2cncc(C(=O)O)c2)c(Cl)c1` (single isomer, unassigned) [IV-05-2, 5-[2-(2-Chloro-4-[[3-(2,6-dichlorophenyl)-5-(propan-2-yl)-1,2-oxazol-4-yl]methoxy]phenyl)-1-methylcyclopropyl] pyridine-3-carboxylic Acid], the EC50 in test [1] lay in the range of 101 to 400 nM; in test [2], 10 to 100 nM.

For the compound `N#CC1(c2ccc(OCc3c(-c4c(Cl)cccc4Cl)noc3C3CC3)cc2Cl)CC1c1cccc(C(=O)O)c1` (single isomer, unassigned) [VII-03-1, 3-[2-(2-Chloro-4-[[5-cyclopropyl-3-(2,6-dichlorophenyl)-1,2-oxazol-4-yl]methoxy]phenyl)-2-cyanocyclopropyl] benzoic Acid], the EC50 is 101 to 400 nM in test [1] and 10 to 100 nM in test [2].

`CC(C)c1onc(-c2c(Cl)cccc2Cl)c1COc1ccc(C2CC2(C#N)c2cccc(C(=O)O)c2)c(Cl)c1` (centres unmarked) [Compound V-02]: the EC50 in test [1] was in the range of 101 to 400 nM; in test [2] it was 10 to 100 nM.

On to `CC(C)c1onc(-c2c(Cl)cccc2Cl)c1COc1ccc(C2CC2(C)c2ccc(C(=O)O)cc2)c(Cl)c1` (centres unmarked) [IV-01], for which the EC50 lay within 401 to 5000 nM in test [1] and 101 to 400 nM in test [2].

Regarding `CC(C)c1onc(-c2c(Cl)cccc2Cl)c1COc1ccc(C2CC2(C)c2cccc(C(=O)O)c2)c(Cl)c1` (centres unmarked) [IV-02], the values for the EC50 in test [1] and in test [2] were 101 to 400 nM and 10 to 100 nM, respectively.

Take `CC1(c2cccc(C(=O)O)c2)CC1c1ccc(OCc2c(-c3c(Cl)cccc3Cl)noc2C2CC2)cc1Cl` (centres unmarked) [IV-03]: the EC50 in test [1] was in the range of 101 to 400 nM; in test [2] it was 10 to 100 nM.

In the case of `CC(C)c1onc(-c2c(Cl)cccc2Cl)c1COc1ccc(C2CC2(C)c2cncc(C(=O)O)c2)c(Cl)c1` (centres unmarked) [IV-05, 5-[2-(2-Chloro-4-[[3-(2,6-dichlorophenyl)-5-(propan-2-yl)-1,2-oxazol-4-yl]methoxy]phenyl)-1-methylcyclopropyl] pyridine-3-carboxylic Acid], the half-maximal effective concentration (EC50) in test [1] and in test [2] was 10 to 100 nM in each case.

For `CC1(c2cncc(C(=O)O)c2)CC1c1ccc(OCc2c(-c3c(Cl)cccc3Cl)noc2C2CC2)cc1Cl` (centres unmarked) [IV-06, 5-[2-(2-Chloro-4-[[5-cyclopropyl-3-(2,6-dichlorophenyl)-1,2-oxazol-4-yl]methoxy]phenyl)-1-methylcyclopropyl] pyridine-3-carboxylic Acid], the EC50 in test [1] and in test [2] was 10 to 100 nM each time.

For the compound `COc1cc(C(=O)O)cc2sc(C3(C)CC3c3ccc(OCc4c(-c5c(Cl)cccc5Cl)noc4C4CC4)cc3Cl)nc12` (centres unmarked) [IV-15, 2-[2-(2-Chloro-4-[[5-cyclopropyl-3-(2,6-dichlorophenyl)-1,2-oxazol-4-yl]methoxy]phenyl)-1-methylcyclopropyl]-4-methoxy-1,3-benzothiazole-6-carboxylic Acid], the EC50 in test [1] was 101 to 400 nM; in test [2], 10 to 100 nM.

For `CC1(c2ncc(C(=O)O)s2)CC1c1ccc(OCc2c(-c3c(Cl)cccc3Cl)noc2C2CC2)cc1Cl` (centres unmarked) [IV-19, 2-(2-(2-Chloro-4-((5-cyclopropyl-3-(2,6-dichlorophenyl)isoxazol-4-yl)methoxy)phenyl)-1-methylcyclopropyl) thiazole-5-carboxylic Acid], the EC50 in test [2] was 101 to 400 nM.

Regarding `CC(C)c1onc(-c2c(Cl)cccc2Cl)c1COc1ccc(C2CC2(C)c2cc(C(=O)O)nn2C(C)C)c(Cl)c1` (centres unmarked) [IV-20], the concentration giving a half-maximal response (EC50) was 101 to 400 nM in test [1] and 10 to 100 nM in test [2].

In the case of `CC(C)c1onc(-c2c(Cl)cccc2Cl)c1COc1ccc(C2(C)CC2c2ccc(C(=O)O)cc2)c(Cl)c1` (centres unmarked) [VI-01, 4-(2-(2-Chloro-4-((3-(2,6-dichlorophenyl)-5-isopropylisoxazol-4-yl)methoxy)phenyl)-2-methylcyclopropyl) benzoic Acid], the EC50 in test [1] lay in the range of 101 to 400 nM; in test [2] it was 10 to 100 nM.

For the compound `CC(C)c1onc(-c2c(Cl)cccc2Cl)c1COc1ccc(C2(C)CC2c2cccc(C(=O)O)c2)c(Cl)c1` (centres unmarked) [VI-02], the EC50 in test [1] and in test [2] was 10 to 100 nM throughout.

For the compound `CC(C)c1onc(-c2c(Cl)cccc2Cl)c1COc1ccc(C2(C)CC2c2cncc(C(=O)O)c2)c(Cl)c1` (centres unmarked) [VI-04, 5-[2-(2-Chloro-4-[[3-(2,6-dichlorophenyl)-5-(propan-2-yl)-1,2-oxazol-4-yl]methoxy]phenyl)-2-methylcyclopropyl] pyridine-3-carboxylic Acid], the EC50 in test [1] and in test [2] was 10 to 100 nM each time.

On to `CC1(c2ccc(OCc3c(-c4c(Cl)cccc4Cl)noc3C3CC3)cc2Cl)CC1c1cncc(C(=O)O)c1` (centres unmarked) [VI-05], for which the EC50 in test [1] and in test [2] was 10 to 100 nM throughout.

In turn, `COc1cc(C(=O)O)cc2sc(C3CC3(C)c3ccc(OCc4c(-c5c(Cl)cccc5Cl)noc4C(C)C)cc3Cl)nc12` (centres unmarked) [VI-10] had an EC50 in test [2] of 101 to 400 nM.

Take `CC(C)c1onc(-c2c(Cl)cccc2Cl)c1COc1ccc(C2(C#N)CC2c2ccc(C(=O)O)cc2)c(Cl)c1` (centres unmarked) [VII-01]: the EC50 lay within 401 to 5000 nM in test [1] and 10 to 100 nM in test [2].

Take `CC(C)c1onc(-c2c(Cl)cccc2Cl)c1COc1ccc(C2(C#N)CC2c2cccc(C(=O)O)c2)c(Cl)c1` (centres unmarked) [VII-02, 3-[2-(2-Chloro-4-[[3-(2,6-dichlorophenyl)-5-(propan-2-yl)-1,2-oxazol-4-yl]methoxy]phenyl)-2-cyanocyclopropyl] benzoic Acid]: the EC50 in test [1] was in the range of 101 to 400 nM; in test [2], 10 to 100 nM.

Take `N#CC1(c2ccc(OCc3c(-c4c(Cl)cccc4Cl)noc3C3CC3)cc2Cl)CC1c1cccc(C(=O)O)c1` (centres unmarked) [VII-03, 3-[2-(2-Chloro-4-[[5-cyclopropyl-3-(2,6-dichlorophenyl)-1,2-oxazol-4-yl]methoxy]phenyl)-2-cyanocyclopropyl] benzoic Acid]: the EC50 in test [1] and in test [2] was 10 to 100 nM each time.

A word on the EC50: it is the concentration that produces a half-maximal response.
